Reference: patent EP0908457B1, “3-(1,2-benzisothiazol- and isoxazol-5-Y1)-2,4(1H,3H)-pyrimidinedione or thione and 3-(1,2-benzisothiazol- and isoxazol-5-y1)-4(3H)-pyrimidinone or thione herbicidal agents” (BASF AKTIENGESELLSCHAFT, priority 1997, dated 1999)

Key:
[1] = system: Oryza sativa, (L.) Tebonnet; test: Rice tolerance to post-transplant applications under flooded paddy conditions (Example 187), ORYSAT (Rice, Tebonnet); details: rated three to four weeks after treatment
[2] = system: Cyperus serotinus, Rottb.; test: Postemergence weed control under flooded paddy conditions, CYPSE (Flatsedge); type: in vivo; details: rated three to four weeks after treatment
[3] = system: Cyperus iria; test: Postemergence weed control under flooded paddy conditions, CYPIR (Rice Flatsedge); type: in vivo; details: rated three to four weeks after treatment
[4] = system: Oryza sativa, (L.) Tebonnet; test: Rice tolerance to post-transplant applications under flooded paddy conditions (Example 188), ORYSAT (Rice, Tebonnet); details: rated three to four weeks after treatment
[5] = system: Cyperus serotinus, Rottb.; test: Preemergence weed control under flooded paddy conditions, CYPSE (Flatsedge); type: in vivo; details: rated three to four weeks after treatment; also: meaning of each grade not given here
[6] = system: Sagittaria pygmaea, L.; test: Preemergence weed control under flooded paddy conditions, SAGPY (Arrowhead (Pygmaea)); type: in vivo; details: flooded paddy, rated three to four weeks after treatment; also: meaning of each grade not given here
[7] = system: Cyperus iria; test: Preemergence weed control under flooded paddy conditions, CYPIR (Rice Flatsedge); type: in vivo; also: meaning of each grade not given here
[8] = system: Monochoria vaginalis, Presl.; test: Preemergence weed control under flooded paddy conditions, MOOVA (Monochoria); type: in vivo; also: meaning of each grade not given here
[9] = system: Echinochloa oryzoides (Ard.) Fritsch.; test: Postemergence weed control under flooded paddy conditions, ECHORC (Watergrass (Calif.)); type: in vivo; details: rated three to four weeks after treatment
[10] = system: Monochoria vaginalis, Presl.; test: Postemergence weed control under flooded paddy conditions, MOOVA (Monochoria); type: in vivo; details: rated three to four weeks after treatment
[11] = system: Sagittaria pygmaea, L.; test: Postemergence weed control under flooded paddy conditions, SAGPY (Arrowhead (Pygmaea)); type: in vivo; details: rated three to four weeks after treatment
[12] = system: Echinochloa oryzoides (Ard.) Fritsch.; test: Preemergence weed control under flooded paddy conditions, ECHORC (Watergrass (Calif.)); type: in vivo; also: meaning of each grade not given here
[13] = 0.0313 kg/ha, preemergence, flooded paddy, rated three to four weeks after treatment
[14] = 0.0625 kg/ha, preemergence, flooded paddy, rated three to four weeks after treatment
[15] = 0.1250 kg/ha, preemergence, flooded paddy, rated three to four weeks after treatment
[16] = 0.2500 kg/ha, preemergence, flooded paddy, rated three to four weeks after treatment
[17] = 0.5000 kg/ha, preemergence, flooded paddy, rated three to four weeks after treatment
[18] = 0.0313 kg/ha, preemergence weeds
[19] = 0.0625 kg/ha, preemergence weeds
[20] = 0.1250 kg/ha, preemergence weeds
[21] = 0.2500 kg/ha, preemergence weeds
[22] = 0.0313 kg/ha, preemergence weeds, flooded paddy, rated three to four weeks after treatment
[23] = 0.0625 kg/ha, preemergence weeds, flooded paddy, rated three to four weeks after treatment
[24] = 0.1250 kg/ha, preemergence weeds, flooded paddy, rated three to four weeks after treatment
[25] = 0.2500 kg/ha, preemergence weeds, flooded paddy, rated three to four weeks after treatment

## COc1ccc(C)cc1-c1nsc2ccc(-n3c(=O)cc(C(F)(F)F)n(C)c3=O)cc12 [Example 1, 3-[3-(6-Methoxy-m-tolyl)-1,2-benzisothiazol-5-yl]-1-methyl-6-(trifluoromethyl)-2,4(1H,3H)-pyrimidinedione]
[1]; 0.0313 kg/ha
  herbicidal effect rating, ORYSAT (rice tolerance): 4.7
[1]; 0.0625 kg/ha
  herbicidal effect rating, ORYSAT (rice tolerance): 4.7
[1]; 0.1250 kg/ha
  herbicidal effect rating, ORYSAT (rice tolerance): 5.3
[1]; 0.2500 kg/ha
  herbicidal effect rating, ORYSAT (rice tolerance): 7.7
[1]; 0.5000 kg/ha
  herbicidal effect rating, ORYSAT (rice tolerance): 7.0
[2]; Rate 0.0313 kg/ha
  herbicidal effect rating, CYPSE: 1.0
[2]; Rate 0.0625 kg/ha
  herbicidal effect rating, CYPSE: 1.0
[2]; Rate 0.1250 kg/ha
  herbicidal effect rating, CYPSE: 3.0
[2]; Rate 0.2500 kg/ha
  herbicidal effect rating, CYPSE: 5.5
[2]; Rate 0.5000 kg/ha
  herbicidal effect rating, CYPSE: 6.5
[3]; Rate 0.0313 kg/ha
  herbicidal effect rating, CYPIR: 0.0
[3]; Rate 0.0625 kg/ha
  herbicidal effect rating, CYPIR: 4.0
[3]; Rate 0.1250 kg/ha
  herbicidal effect rating, CYPIR: 9.0
[3]; Rate 0.2500 kg/ha
  herbicidal effect rating, CYPIR: 9.0
[3]; Rate 0.5000 kg/ha
  herbicidal effect rating, CYPIR: 9.0
[4]; Rate 0.0313 kg/ha
  herbicidal effect rating, ORYSAT (rice tolerance): 3.0
[4]; Rate 0.0625 kg/ha
  herbicidal effect rating, ORYSAT (rice tolerance): 3.0
[4]; Rate 0.1250 kg/ha
  herbicidal effect rating, ORYSAT (rice tolerance): 4.0
[4]; Rate 0.2500 kg/ha
  herbicidal effect rating, ORYSAT (rice tolerance): 6.0
[4]; Rate 0.5000 kg/ha
  herbicidal effect rating, ORYSAT (rice tolerance): 7.0
[5]; 0.0313 kg/ha, preemergence
  herbicidal effect rating, CYPSE: 1.3
[5]; 0.0625 kg/ha, preemergence
  herbicidal effect rating, CYPSE: 3.0
[5]; 0.1250 kg/ha, preemergence
  herbicidal effect rating, CYPSE: 6.0
[5]; 0.2500 kg/ha, preemergence
  herbicidal effect rating, CYPSE: 9.0
[5]; 0.5000 kg/ha, preemergence
  herbicidal effect rating, CYPSE: 8.0
[6]; 0.0313 kg/ha, preemergence
  herbicidal effect rating, SAGPY: 3.3
[6]; 0.0625 kg/ha, preemergence
  herbicidal effect rating, SAGPY: 5.0
[6]; 0.1250 kg/ha, preemergence
  herbicidal effect rating, SAGPY: 6.7
[6]; 0.2500 kg/ha, preemergence
  herbicidal effect rating, SAGPY: 8.3
[6]; 0.5000 kg/ha, preemergence
  herbicidal effect rating, SAGPY: 8.5
[7]; [13]
  herbicidal effect rating, CYPIR: 9.0
[7]; [14]
  herbicidal effect rating, CYPIR: 9.0
[7]; [15]
  herbicidal effect rating, CYPIR: 9.0
[7]; [16]
  herbicidal effect rating, CYPIR: 9.0
[7]; [17]
  herbicidal effect rating, CYPIR: 9.0
[8]; [13]
  herbicidal effect rating, MOOVA: 9.0
[8]; [14]
  herbicidal effect rating, MOOVA: 9.0
[8]; [15]
  herbicidal effect rating, MOOVA: 9.0
[8]; [16]
  herbicidal effect rating, MOOVA: 9.0
[8]; [17]
  herbicidal effect rating, MOOVA: 9.0
[9]; Rate 0.0313 kg/ha
  herbicidal effect rating, ECHORC: 1.0
[9]; Rate 0.0625 kg/ha
  herbicidal effect rating, ECHORC: 2.5
[9]; Rate 0.1250 kg/ha
  herbicidal effect rating, ECHORC: 6.5
[9]; Rate 0.2500 kg/ha
  herbicidal effect rating, ECHORC: 8.0
[9]; Rate 0.5000 kg/ha
  herbicidal effect rating, ECHORC: 9.0
[10]; Rate 0.0313 kg/ha
  herbicidal effect rating, MOOVA: 0.0
[10]; Rate 0.0625 kg/ha
  herbicidal effect rating, MOOVA: 1.0
[10]; Rate 0.1250 kg/ha
  herbicidal effect rating, MOOVA: 4.5
[10]; Rate 0.2500 kg/ha
  herbicidal effect rating, MOOVA: 5.5
[10]; Rate 0.5000 kg/ha
  herbicidal effect rating, MOOVA: 6.5
[11]; Rate 0.0313 kg/ha
  herbicidal effect rating, SAGPY: 0.0
[11]; Rate 0.0625 kg/ha
  herbicidal effect rating, SAGPY: 0.0
[11]; Rate 0.1250 kg/ha
  herbicidal effect rating, SAGPY: 0.0
[11]; Rate 0.2500 kg/ha
  herbicidal effect rating, SAGPY: 1.0
[11]; Rate 0.5000 kg/ha
  herbicidal effect rating, SAGPY: 3.0
[12]; [13]
  herbicidal effect rating, ECHORC: 9.0
[12]; [14]
  herbicidal effect rating, ECHORC: 9.0
[12]; [15]
  herbicidal effect rating, ECHORC: 9.0
[12]; [16]
  herbicidal effect rating, ECHORC: 9.0
[12]; [17]
  herbicidal effect rating, ECHORC: 9.0

## COC(=O)C(C)Oc1ccc(C)cc1-c1nsc2ccc(-n3c(=O)cc(C(F)(F)F)n(C)c3=O)cc12 (stereo not drawn) [Example 3, Methyl 2-{{2-{5-[3,6-dihydro-3-methyl-4-(trifluoromethyl)-2,6-dioxo-1(2H)-pyrimidinyl]-1,2-benzisothiazol-3-yl}-p-tolyl}oxy}propionate]
[2]; Rate 0.0313 kg/ha
  herbicidal effect rating, CYPSE: 0.0
[2]; Rate 0.0625 kg/ha
  herbicidal effect rating, CYPSE: 0.0
[2]; Rate 0.1250 kg/ha
  herbicidal effect rating, CYPSE: 0.0
[2]; Rate 0.2500 kg/ha
  herbicidal effect rating, CYPSE: 0.0
[2]; Rate 0.5000 kg/ha
  herbicidal effect rating, CYPSE: 0.0
[3]; Rate 0.0313 kg/ha
  herbicidal effect rating, CYPIR: 9.0
[3]; Rate 0.0625 kg/ha
  herbicidal effect rating, CYPIR: 9.0
[3]; Rate 0.1250 kg/ha
  herbicidal effect rating, CYPIR: 9.0
[3]; Rate 0.2500 kg/ha
  herbicidal effect rating, CYPIR: 9.0
[3]; Rate 0.5000 kg/ha
  herbicidal effect rating, CYPIR: 9.0
[4]; Rate 0.0313 kg/ha
  herbicidal effect rating, ORYSAT (rice tolerance): 2.0
[4]; Rate 0.0625 kg/ha
  herbicidal effect rating, ORYSAT (rice tolerance): 2.0
[4]; Rate 0.1250 kg/ha
  herbicidal effect rating, ORYSAT (rice tolerance): 3.0
[4]; Rate 0.2500 kg/ha
  herbicidal effect rating, ORYSAT (rice tolerance): 3.0
[4]; Rate 0.5000 kg/ha
  herbicidal effect rating, ORYSAT (rice tolerance): 3.0
[7]; in vivo
  herbicidal effect rating, CYPIR: 9.0
[8]; in vivo
  herbicidal effect rating, MOOVA: 9.0
[9]; Rate 0.0313 kg/ha
  herbicidal effect rating, ECHORC: 0.0
[9]; Rate 0.0625 kg/ha
  herbicidal effect rating, ECHORC: 0.0
[9]; Rate 0.1250 kg/ha
  herbicidal effect rating, ECHORC: 0.0
[9]; Rate 0.2500 kg/ha
  herbicidal effect rating, ECHORC: 2.0
[9]; Rate 0.5000 kg/ha
  herbicidal effect rating, ECHORC: 4.0
[10]; Rate 0.0313 kg/ha
  herbicidal effect rating, MOOVA: 9.0
[10]; Rate 0.0625 kg/ha
  herbicidal effect rating, MOOVA: 9.0
[10]; Rate 0.1250 kg/ha
  herbicidal effect rating, MOOVA: 9.0
[10]; Rate 0.2500 kg/ha
  herbicidal effect rating, MOOVA: 9.0
[10]; Rate 0.5000 kg/ha
  herbicidal effect rating, MOOVA: 9.0
[11]; Rate 0.0313 kg/ha
  herbicidal effect rating, SAGPY: 0.0
[11]; Rate 0.0625 kg/ha
  herbicidal effect rating, SAGPY: 0.0
[11]; Rate 0.1250 kg/ha
  herbicidal effect rating, SAGPY: 0.0
[11]; Rate 0.2500 kg/ha
  herbicidal effect rating, SAGPY: 0.0
[11]; Rate 0.5000 kg/ha
  herbicidal effect rating, SAGPY: 0.0
[12]; in vivo
  herbicidal effect rating, ECHORC: 9.0

## C#CCNC(=O)COc1ccc(C)cc1-c1noc2ccc(-n3c(=O)cc(C(F)(F)F)n(C)c3=O)cc12 [Example 193, 2-{{2-{5-[3,6-Dihydro-3-methyl-2,6-dioxo-4-(trifluoromethyl)-1(2H)-pyrimidinyl]-1,2-benzisoxazol-3-yl}-p-tolyl}oxy}-N-(2-propynyl)acetamide]
[1]; 0.0313 kg/ha
  herbicidal effect rating, ORYSAT (rice tolerance): 0.0
[1]; 0.0625 kg/ha
  herbicidal effect rating, ORYSAT (rice tolerance): 0.0
[1]; 0.1250 kg/ha
  herbicidal effect rating, ORYSAT (rice tolerance): 0.0
[1]; 0.2500 kg/ha
  herbicidal effect rating, ORYSAT (rice tolerance): 1.0
[5]; [18]
  herbicidal effect rating, CYPSE: 0.0
[5]; [19]
  herbicidal effect rating, CYPSE: 0.0
[5]; [20]
  herbicidal effect rating, CYPSE: 0.0
[5]; [21]
  herbicidal effect rating, CYPSE: 0.0
[6]; [18]
  herbicidal effect rating, SAGPY: 0.0
[6]; [19]
  herbicidal effect rating, SAGPY: 0.0
[6]; [20]
  herbicidal effect rating, SAGPY: 0.0
[6]; [21]
  herbicidal effect rating, SAGPY: 0.0
[7]; [22]
  herbicidal effect rating, CYPIR: 0.0
[7]; [23]
  herbicidal effect rating, CYPIR: 0.0
[7]; [24]
  herbicidal effect rating, CYPIR: 0.0
[7]; [25]
  herbicidal effect rating, CYPIR: 0.0
[8]; [22]
  herbicidal effect rating, MOOVA: 2.0
[8]; [23]
  herbicidal effect rating, MOOVA: 4.0
[8]; [24]
  herbicidal effect rating, MOOVA: 9.0
[8]; [25]
  herbicidal effect rating, MOOVA: 9.0
[12]; [22]
  herbicidal effect rating, ECHORC: 0.0
[12]; [23]
  herbicidal effect rating, ECHORC: 0.0
[12]; [24]
  herbicidal effect rating, ECHORC: 0.0
[12]; [25]
  herbicidal effect rating, ECHORC: 0.0
